Laboratory results: PMC7505474, “Toll-like receptor 4-mediated inflammation triggered by extracellular IFI16 is enhanced by lipopolysaccharide binding” (PLoS Pathogens, 2020)
Entries after “also recorded” stand apart in the source; their conditions may differ. Where two headings read alike, the source gives them in different places.

Legend:
[1] = target: T1, PYRIN (Homo sapiens, UniProt Q16666); test: Saturation binding ELISA, PYRIN domain on immobilized LPS variants / lipid A
T1 construct: the N-terminal portion containing the pyrin domain (PYRIN); made in house; host or cells: bacteria (pET30a vector)
T1 sequence (Q16666 1-88 limits assumed): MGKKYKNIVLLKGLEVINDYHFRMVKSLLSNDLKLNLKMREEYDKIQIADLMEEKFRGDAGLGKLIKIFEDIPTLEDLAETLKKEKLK
Procedure: (§1) For saturation binding experiments, microtiter plates (Nunc-Immuno MaxiSorp, Thermo Fischer Scientific) were coated with 2 μg/ml of recombinant IFI16 or 10 μg/ml of BSA or GST in 1X PBS O/N at 4°C. After a washing step with 1X PBS and 0.25% Tween 20 (v/v, Sigma-Aldrich) and blocking step with 1X PBS with 3% BSA and 0.05% Tween 20 for 1 h, increasing concentrations of biotin-labeled LPS-EB, preincubated with 10 μg/ml of polymyxin B (PMB) when specified, were added to the wells and incubated for 1 h at room temperature (RT). Bound proteins were then detected using HRP-conjugated streptavidin. TMB solution (Thermo Fischer Scientific) was used for color development, and OD was measured at 450 nm. Alternatively, microtiter plates were coated with 10 μg/ml of LPS-EB, LPS-PG, LPS-RS, LPS-F583, MPLA, DPLA, or detoxLPS in 1X PBS for 24 h at RT. After washing and blocking for 2 h, increasing concentrations of IFI16, PYRIN, HINA, or HINB were added to the wells, preincubated with 10 μg/ml of PMB when specified, for 2 h. Anti-IFI16 antibodies against the N- or the C-terminus of the protein and HRP-labeled anti-rabbit IgG were then added as primary and secondary antibodies, respectively. The binding was detected as described above.
(§2) For competitive ELISA, microtiter plates were coated with 1 μg/ml LPS-EB in 1X PBS O/N at RT. Successively, a constant amount of 2 μg/ml IFI16 was added to the wells in the presence of increasing concentration of LPS-EB, MPLA or detoxLPS. After incubation for 4 h at RT under gentle agitation, plates were incubated with an anti-IFI16 N-terminal primary antibody and an HRP-conjugated anti-rabbit IgG secondary antibody. The binding was detected as described above. To determine KD constants, saturation binding experiments were performed, and data were fitted to the Langmuir isotherm equation, which describes the equilibrium binding of the ligands. Data are reported as sigmoid concentration-response curves plotted against log concentrations.

[2] = target: T2, IFI16 (Homo sapiens, UniProt Q16666); test: Saturation binding ELISA, full-length IFI16 on immobilized LPS variants / lipid A
T2 construct: obtained with the full-length recombinant IFI16 protein; made in house
T2 sequence (Q16666 1-729 isoform Q16666-2): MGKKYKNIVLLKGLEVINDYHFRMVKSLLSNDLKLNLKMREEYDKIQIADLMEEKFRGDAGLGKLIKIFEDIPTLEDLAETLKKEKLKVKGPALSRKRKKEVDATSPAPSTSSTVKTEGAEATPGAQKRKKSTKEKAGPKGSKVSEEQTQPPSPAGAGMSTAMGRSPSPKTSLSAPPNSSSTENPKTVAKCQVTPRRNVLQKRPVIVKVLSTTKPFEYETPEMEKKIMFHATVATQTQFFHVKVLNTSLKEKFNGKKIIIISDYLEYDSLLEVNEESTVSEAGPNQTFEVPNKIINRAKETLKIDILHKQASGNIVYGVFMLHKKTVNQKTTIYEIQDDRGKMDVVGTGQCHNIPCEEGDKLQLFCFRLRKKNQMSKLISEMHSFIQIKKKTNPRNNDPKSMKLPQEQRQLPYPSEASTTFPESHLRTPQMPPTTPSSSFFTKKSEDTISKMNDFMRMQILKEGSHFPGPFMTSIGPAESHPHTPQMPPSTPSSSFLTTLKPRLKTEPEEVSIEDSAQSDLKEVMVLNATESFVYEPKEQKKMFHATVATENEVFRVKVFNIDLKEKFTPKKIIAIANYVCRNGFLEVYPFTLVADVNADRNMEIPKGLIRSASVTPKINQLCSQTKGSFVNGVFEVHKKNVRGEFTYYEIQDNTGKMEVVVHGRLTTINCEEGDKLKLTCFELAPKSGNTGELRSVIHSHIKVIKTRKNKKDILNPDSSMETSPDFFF
Procedure: as §1, §2

[3] = target: T3, HINA (Homo sapiens, UniProt Q16666); test: Saturation binding ELISA, HINA domain on immobilized LPS variants / lipid A
T3 construct: each of the 200 amino acid-long HIN domains (namely HINA or HINB); made in house; host or cells: bacteria (pET30a vector)
T3 sequence (Q16666 189-389 limits assumed): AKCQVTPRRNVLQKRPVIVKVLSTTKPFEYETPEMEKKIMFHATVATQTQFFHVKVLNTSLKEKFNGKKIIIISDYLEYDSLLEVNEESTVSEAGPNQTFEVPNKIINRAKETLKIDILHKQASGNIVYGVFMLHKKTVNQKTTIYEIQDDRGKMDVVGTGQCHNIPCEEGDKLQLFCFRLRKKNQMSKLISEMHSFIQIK
Procedure: as §1, §2

[4] = target: T4, HINB (Homo sapiens, UniProt Q16666); test: Saturation binding ELISA, HINB domain on immobilized LPS variants / lipid A
T4 construct: each of the 200 amino acid-long HIN domains (namely HINA or HINB); made in house; host or cells: bacteria (pET30a vector)
T4 sequence (Q16666 562-761 limits assumed): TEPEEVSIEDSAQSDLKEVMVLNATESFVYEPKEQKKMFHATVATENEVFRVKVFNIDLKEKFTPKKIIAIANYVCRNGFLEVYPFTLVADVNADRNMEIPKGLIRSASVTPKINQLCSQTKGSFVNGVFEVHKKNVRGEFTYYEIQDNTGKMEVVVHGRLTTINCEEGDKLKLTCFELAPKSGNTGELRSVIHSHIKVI
Procedure: as §1, §2

[5] = target: T2, IFI16; test: Competition ELISA for IFI16 binding to immobilized LPS-EB; details: 1 μg/ml LPS-EB coated; 2 μg/ml IFI16; competitor 5 to 25 μg/ml
Procedure: as §2

[6] = target: T5, TLR4/MD2 receptor (Homo sapiens, UniProt O00206+Q9Y6Y9); test: SPR, analytes over immobilized TLR4/MD2; assay type: binding
T5 construct: purchased R&D Systems 3146-TM-050/CF
Procedure: The Biacore X100 (GE Healthcare) instrument was used for real-time binding interaction experiments. Recombinant TLR4 or TLR4/MD2 complex was covalently immobilized onto the surface of sensor CM5 (cat # BR100012, GE Healthcare) chips via amine coupling. TLR4 was diluted to a concentration of 10 μg/ml in 10 mM sodium acetate at pH 4.0, while TLR4/MD2 complex was diluted to a concentration of 20 μg/ml in the same buffer. Both proteins were injected on CM5 chips at a flow rate of 10 μl/min, upon activation of the carboxyl groups on the sensor surface with 7-min injection of a mixture of 0.2 M EDC and 0.05 M NHS. The remaining esters were blocked with 7-min injection of ethanolamine. Taking into account the ligands (TLR4 or TLR4/MD2) and analytes (IFI16, LPS-EB or IFI16/LPS-EB) molecular weights (MW) of 70 or 90 kDa, and 90, 10 or 100 kDa respectively, the appropriate ligand density (RL) on the chip was calculated according to the following equation: RL = (ligand MW/analyte MW) × Rmax × (1/Sm), where Rmax is the maximum binding signal and Sm corresponds to the binding stoichiometry. The target capture level of the TLR4 or TLR4/MD2 was of 596.0 or 1,223.9 response units (RUs), respectively. […] Increasing concentrations of endotoxin-free IFI16, LPS-EB or IFI16/LPS-EB complex were flowed over the CM5 sensor chip coated with TLR4 or TLR4/MD2 at a flow rate of 30 μl/min at 25°C with an association time of 120 s for IFI16 alone and the IFI16/LPS-EB complex, and 180 s for LPS-EB, and a dissociation phase of 180 s for IFI16 and IFI16/LPS-EB complex or 600 s for LPS-EB. A single regeneration step with 50 mM NaOH was performed following each analytic cycle. All the analytes tested were diluted in the HBS-EP+ buffer (GE Healthcare). […]

[7] = target: T2, IFI16; test: SPR, LPS-EB over CM5 IFI16-coated chip; assay type: binding; details: LPS-EB 3.125–100 nM over immobilized IFI16
Procedure: Recombinant IFI16 was covalently immobilized onto the surface of sensor CM5 chips via amine coupling as done for TLR4 and TLR4/MD2 complex. IFI16 was diluted to a concentration of 25 μg/ml in 10 mM sodium acetate at pH 4.0. The target capture level of IFI16 was of 1,926.6 response units (RUs). Increasing concentrations of LPS-EB, diluted in HBS-EP+ buffer, were flowed over the CM5 sensor chip coated with IFI16 at a flow rate of 30 μl/min at 25°C with an association time of 180 s and a dissociation phase of 600 s. A single regeneration step with 50 mM NaOH was performed following each analytic cycle. The KDs were evaluated using the BIAcore evaluation software (GE Healthcare) and the reliability of the kinetic constants calculated by assuming a 1:1 binding model supported by the quality assessment indicators values.

[8] = target: T2, IFI16; test: Saturation binding ELISA, IFI16-coated plates challenged with biotin-LPS-EB
Procedure: as §1

[9] = 10 μg/ml immobilized LPS variant or lipid A; increasing PYRIN domain; read-out: Equilibrium dissociation constant (KD), PYRIN
[10] = 10 μg/ml immobilized LPS variant or lipid A; increasing full-length IFI16; ELISA 450 nm; read-out: Equilibrium dissociation constant (KD), IFI16
[11] = 10 μg/ml immobilized LPS variant or lipid A; increasing HINA domain; read-out: Equilibrium dissociation constant (KD), HINA
[12] = 10 μg/ml immobilized LPS variant or lipid A; increasing HINB domain; read-out: Equilibrium dissociation constant (KD), HINB

T5 sequence (O00206 24-631 limits assumed): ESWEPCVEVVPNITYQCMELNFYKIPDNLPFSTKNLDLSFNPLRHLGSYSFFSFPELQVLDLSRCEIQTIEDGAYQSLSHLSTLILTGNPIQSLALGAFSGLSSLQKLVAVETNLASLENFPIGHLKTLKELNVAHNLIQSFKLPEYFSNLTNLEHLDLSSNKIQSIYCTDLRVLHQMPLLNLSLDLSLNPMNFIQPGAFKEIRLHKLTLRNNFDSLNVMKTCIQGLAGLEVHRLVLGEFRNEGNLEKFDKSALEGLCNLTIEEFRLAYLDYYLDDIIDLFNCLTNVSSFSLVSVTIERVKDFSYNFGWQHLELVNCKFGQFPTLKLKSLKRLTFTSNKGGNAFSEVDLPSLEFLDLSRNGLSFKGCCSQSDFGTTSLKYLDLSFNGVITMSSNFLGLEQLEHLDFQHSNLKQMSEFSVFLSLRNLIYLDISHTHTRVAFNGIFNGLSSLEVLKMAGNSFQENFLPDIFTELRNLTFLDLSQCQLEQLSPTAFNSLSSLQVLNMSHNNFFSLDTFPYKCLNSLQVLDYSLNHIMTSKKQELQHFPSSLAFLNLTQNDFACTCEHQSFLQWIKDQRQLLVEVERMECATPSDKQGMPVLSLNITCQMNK
T5 sequence (Q9Y6Y9 17-160 limits assumed): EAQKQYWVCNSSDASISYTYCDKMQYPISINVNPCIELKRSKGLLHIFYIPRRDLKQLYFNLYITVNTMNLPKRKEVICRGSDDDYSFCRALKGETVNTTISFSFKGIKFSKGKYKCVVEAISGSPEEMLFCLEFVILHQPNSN

Row | Compound | Kd [1, 9] | Competition for IFI16 binding to immobilized LPS-EB [5] | Kd [2, 10] | Kd [3, 11] | Kd [4, 12] | other results
1 | CCCCCCCCCCCCCC(=O)O[C@H](CCCCCCCCCCC)CC(=O)O[C@@H]1[C@@H](NC(=O)C[C@@H](CCCCCCCCCCC)OC(=O)CCCCCCCCCCC)[C@H](OC[C@H]2O[C@H](OP(=O)(O)O)[C@H](NC(=O)C[C@H](O)CCCCCCCCCCC)[C@@H](OC(=O)C[C@H](O)CCCCCCCCCCC)[C@@H]2O)O[C@H](CO)[C@H]1OP(=O)(O)O [DPLA, diphosphoryl lipid A from Escherichia coli F583] |  |  |  |  |  | Kd ([1]; read-out: Equilibrium dissociation constant (KD), PYRIN; 10 μg/ml immobilized LPS variant or lipid A; increasing PYRIN domain): 47.5 nM; Kd ([2]; read-out: Equilibrium dissociation constant (KD), IFI16; 10 μg/ml immobilized LPS variant or lipid A; increasing full-length IFI16; ELISA 450 nm): 0.9 nM; Kd ([3]; read-out: Equilibrium dissociation constant (KD), HINA; 10 μg/ml immobilized LPS variant or lipid A; increasing HINA domain): 67.7 nM; Kd ([4]; read-out: Equilibrium dissociation constant (KD), HINB; 10 μg/ml immobilized LPS variant or lipid A; increasing HINB domain): 2.8 nM
2 | CCCCCCCCCCCCCC(=O)O[C@H](CCCCCCCCCCC)CC(=O)O[C@@H]1[C@@H](NC(=O)C[C@@H](CCCCCCCCCCC)OC(=O)CCCCCCCCCCC)[C@H](OC[C@H]2OC(O)[C@H](NC(=O)C[C@H](O)CCCCCCCCCCC)[C@@H](OC(=O)C[C@H](O)CCCCCCCCCCC)[C@@H]2O)O[C@H](CO)[C@H]1OP(=O)(O)O (some centres unmarked) [MPLA, monophosphoryl lipid A from Escherichia coli F583] | 47.2 nM | much stronger reduction in IFI16 binding to LPS | 1.2 nM | 94.1 nM | 2.7 nM | 
3 | LPS from Escherichia coli F583 [LPS-F583] |  |  | 4.3 nM |  |  | 
4 | LPS from Escherichia coli O111:B4 [LPS-EB] | 116 nM | reduced IFI16 binding to immobilized LPS in a concentration-dependent manner | 4.2 nM | 85.3 nM | 3.3 nM | dissociation rate constant (Kd) [6]: 1e-06 s⁻¹; Ka ([6]; association rate constant): 6840 M⁻¹ s⁻¹; dissociation rate constant (koff) ([6]; dissociation rate constant): 1e-06 s⁻¹; Kd ([6]; equilibrium dissociation constant, read-out: KD): 0.147 nM; Rmax ([6]; maximum response): 745.00 RU; Kd ([6]; text / Fig 8C legend, read-out: equilibrium dissociation constant (KD)): 0.15 nM; kinetic association constant (Ka) [7]: 11300 M⁻¹ s⁻¹; kinetic dissociation constant (Kd) ([7]; rate constant): 0.00194 s⁻¹
5 | LPS from Porphyromonas gingivalis [LPS-PG] | 46.9 nM |  | 12 nM | 84 nM | 1.6 nM | 
6 | LPS from Rhodobacter sphaeroides [LPS-RS] |  |  | 19.3 nM |  |  | 
7 | biotin-labeled LPS from Escherichia coli O111:B4 [biotin-LPS-EB] |  |  |  |  |  | biotin-LPS-EB concentration reaching saturation of solid-phase IFI16 ([8]; 2 μg/ml IFI16 coated): 100,000 ng/ml
8 | detoxified LPS from Escherichia coli O111:B4 [detoxLPS] |  | did not interfere |  |  |  | 
9 | polymyxin B [PMB] |  |  |  |  |  | Effect of PMB pre-treatment of immobilized LPS / lipid A on IFI16 binding ([2]; 10 μg/ml PMB): completely abolished IFI16 binding; also recorded: no signal was detected; Effect of PMB pre-incubated with biotin-LPS-EB on IFI16/LPS binding ([8]; 10 μg/ml PMB, IFI16-coated wells): completely prevented IFI16 from binding to LPS
